According to patent US8697839B2, “GQ protein competitive inhibitory polypeptides, preparation methods and uses thereof” (Third Military Medical University, priority 2008, dated 2014):

How the values were obtained:
[1] = system: myocardial hypertrophy in mice induced by norepinephrine; test: myocardial hypertrophy in mice induced by norepinephrine; assay type: in vivo; conditions: NE model group: equivalent to 1.5 mg/kg NE ip bid 15 days, alone; x ± s
Procedure: Fifty of the mice used in the experiment (purchased from Center for Experimental Animals, Third Military Medical University) was assigned into five groups with 10 mice per group. The mice in the control group were administrated with 0.1% ascorbic acid-3 mg % potassium sodium tartrate-physiological saline, The mice in the model group were administrated with 0.1% ascorbic acid-6 mg % norepinephrine bitartrate-physiological saline (equivalent to 1.5 mg/kg NE); The mice in three dosing groups were administrated with the pentadecapeptide, the heptacosapeptide, and the pantapentacontapeptide at 30 μg/kg respectively, while administration of 0.1% ascorbic acid—6 mg % norepinephrine bitartrate—physiological saline. The administration was performed consecutively by intraperitoneal injection (ip), twice a day (bid), for 15 days. The dosing volumes for each group were 50 ml/kg. Then, the animals were sacrificed by cervical dislocation. The heart was removed by thoracotomy, washed with the chilled physiological saline to get rid of blood stain, blotted with filter paper, weighed on a scale. The atriums and the right ventricle were carefully removed (with the interventricular septum left), and the left ventricle was weighed.

[2] = system: cultured cardiocytes of the rats (hypertrophy induced by NE); test: protein content in rat cardiocyte hypertrophy induced by norepinephrine (Lowry method); assay type: cell-based, Wistar rats; conditions: for Protein content: 24 h, n = 6, x ± s; for effect on protein content in the hypertrophic cardiocyte induced by NE: polypeptide at 10 nmol/L
Description: 1. Wistar rats 1-3 day postpartum (purchased from Center for Experimental Animal, Third Military Medical University) was used, sacrificed by cervical dislocation, and fixed on a dissecting table. The ventral skin of the corpus was disinfected with 2% iodine tincture and then 75% ethanol. The heart was removed, cutted into pieces of about 1-3 mm^3, digested repeatedly with a digestion solution containing 0.08% trypase, 0.02% EDTA, and 0.05% collogen. The cells were collected in DMEM containing 10% fetal bovine serum and cultured in an incubator at 37° C., 5% CO2.
2. The cardiocytes cultured for 48 h were subjected to replacement of the DMEM with a serum-free DMEM culture media and further cultured for 24 h before addition of a drug according to the following groups: • Normal control group; 10 μl of PBS was added. • Norepinephrine group; norepinephrine (NE, Serva Corporation, USA) was added at 1 μmol/L. • Polypeptide-dosed group: NE was added, while the corresponding polypeptide drug was added at 10 nmol/L.
3. After addition of the drug, the cells were further cultured for 24 h and then the culture media was discarded. The culture was washed with PBS, followed by adding 0.5 ml of 5% trichloracetic acid per well, and left at 4° C. for 1 h. The precipitate was dissolved in 1 ml of 0.1 mol/L NaOH. The protein content was determined by Lowry method.

[3] = system: myocardial hypertrophy in rats induced by norepinephrine; test: myocardial hypertrophy in rats induced by norepinephrine; assay type: in vivo, Wistar rats; conditions: NE model group: 6 mg % norepinephrine bitartrate, 33 ml/kg ip bid 20 days, alone; n = 6, x ± s
Procedure: Thirty of Wistar rats were selected and assigned into five groups with 6 rats per group. The rats in the control group were administrated with 0.1% ascorbic acid-3 mg % potassium sodium tartrate-physiological saline; the rats in the model group were administrated with 0.1% ascorbic acid-6 mg % norepinephrine bitartrate-physiological saline; the rats in the three dosing groups were administrated with the pentadecapeptide, the heptacosapeptide, and the pantapentacontapeptide at 15 μg/kg respectively, while administration of norepinephrine. The dosing volume for each group was 33 ml/kg, and the administration was performed consecutively by ip, bid, for 20 days. At that time, the heart and left ventricle were weighed.

[4] = system: hypertrophic cardiocyte induced by angiotensin II; test: protein content in rat cardiocyte hypertrophy induced by angiotensin II (Lowry method); assay type: cell-based; conditions: for Protein content: 24 h, n = 6, x ± s
Procedure: 1. The cardiocytes were cultured for 48 h in the same way as described above, then subjected to replacement of the DMEM with a serum-free DMEM culture media, and further cultured for 24 h before addition of a drug according to the following groups: normal control group: 10 μl of PBS was added; Ang II group; Ang II was added at 1 μmol/L; serial polypeptide-dosed group: Ang II was added, while each of the dodecapeptide, pentadecapeptide, heptacosapeptide, pantapentacontapeptide was added at 10 nmol/L.
2. After addition of the drug, the cells were further cultured for 24 h and then the culture media was discarded. The culture was washed with PBS, followed by adding 0.5 ml of 5% trichloracetic acid per well, and left at 4° C. for 1 h. The precipitate was dissolved in 1 ml of 0.1 mol/L NaOH. The protein content was determined by Lowry method.

[5] = polypeptide 10 nmol/L together with NE 1 μmol/L

NC[C@H](O)c1ccc(O)c(O)c1 [NE, norepinephrine, reference compound]
HI (heart index) [1]: 4.82 ± 0.44 mg/g | HW (heart weight) [1]: 112.1 ± 12.1 mg | LVI (left ventricular index or myocardial hypertrophy index) [1]: 3.69 ± 0.36 mg/g | LVW (left ventricular weight) [1]: 85.6 ± 9.16 mg | Protein content ([2]; NE group: NE 1000 nmol/L alone): 121.0 ± 13.2 μg/10^5 cells | HI (heart index) [3]: 3.674 ± 0.348 g/kg | HW (heart weight) [3]: 0.690 ± 0.078 g | LVI (left ventricular index or myocardial hypertrophy index) [3]: 2.954 ± 0.225 g/kg | LVW (left ventricular weight) [3]: 0.555 ± 0.055 g

Dicosapeptide: SEQ ID NO: 7 (icosapeptide), obtained by deleting amino acid residues 1 to 35 at the N-terminal of SEQ ID NO: 1 (VFAAVKDTILQLNLKEYNLV; listed as Homo sapiens)
Protein content [2, 5]: 103.4 ± 11.4 μg/10^5 cells | effect on protein content in the hypertrophic cardiocyte induced by NE [2]: significantly decrease

Dodecapeptide: SEQ ID NO: 10, obtained by deleting amino acid residues 1 to 43 at the N-terminal of SEQ ID NO: 1 (ILQLNLKEYNLV; listed as Homo sapiens)
effect on protein content in the cardiocyte in comparison with Ang II ([4]; polypeptide 10 nmol/L + Ang II): no manifest effect | Protein content ([4]; polypeptide 10 nmol/L together with Ang II 1 μmol/L): 144.0 ± 11.7 μg/10^5 cells | Protein content [2, 5]: 113.3 ± 11.6 μg/10^5 cells | effect on protein content in the hypertrophic cardiocyte induced by NE [2]: no manifest effect

Heptadecapeptide: SEQ ID NO: 8, obtained by deleting amino acid residues 1 to 38 at the N-terminal of SEQ ID NO: 1 (AVKDTILQLNLKEYNLV; listed as Homo sapiens)
Protein content [2, 5]: 96.4 ± 10.5 μg/10^5 cells | effect on protein content in the hypertrophic cardiocyte induced by NE [2]: significantly decrease

angiotensin II (DRVYIHPF; Angiotensin-2; UniProt P01019 25-32, looked up) [Ang II, inducer of cardiocyte hypertrophy, reference compound]
protein content in the cardiocyte ([4]; Ang II added alone, vs 113.9±7.48 normal control, p<0.01): 143.2 ± 5.49 µg | Protein content ([4]; Ang II group: Ang II 1000 nmol/L alone): 143.2 ± 5.49 μg/10^5 cells
